Test results as given in ChEMBL document CHEMBL5032520, “Low-Valent Calix[4]arene Glycoconjugates Based on Hydroxamic Acid Bearing Linkers as Potent Inhibitors in a Model of Ebola Virus Cis-Infection and HCMV-gB-Recombinant Glycoprotein Interaction with MDDC Cells by Blocking DC-SIGN” (J Med Chem, 2021).

Legend:
Human betaherpesvirus 5 [1] = assay: Antiviral activity against HCMV infected in U-937 cells expressed in DC-SIGN using flow cytometry; format: functional, organism-based; settings: Human betaherpesvirus 5, U-937
Human betaherpesvirus 5 [2] = assay: Potency index, ratio of Mannan IC50 to test compound IC50 for antiviral activity against HCMV infected in U-937 cells expressed in DC-SIGN using flow cytometry; format: functional

C[C@@H]1O[C@@H](OCc2cn(CCCCCC(=O)N(O)Cc3cn(CCCOc4c5cc(C(C)(C)C)cc4Cc4cc(C(C)(C)C)cc(c4OCCCn4cc(CN(O)C(=O)CCCCCn6cc(CO[C@@H]7O[C@@H](C)[C@@H](O)[C@@H](O)[C@@H]7O)nn6)nn4)Cc4cc(C(C)(C)C)cc(c4OCCCn4cc(CN(O)C(=O)CCCCCn6cc(CO[C@@H]7O[C@@H](C)[C@@H](O)[C@@H](O)[C@@H]7O)nn6)nn4)Cc4cc(C(C)(C)C)cc(c4OCCCn4cc(CN(O)C(=O)CCCCCn6cc(CO[C@@H]7O[C@@H](C)[C@@H](O)[C@@H](O)[C@@H]7O)nn6)nn4)C5)nn3)nn2)[C@@H](O)[C@H](O)[C@@H]1O
IC50 (Human betaherpesvirus 5 [1]): 0.5 mg/L
Ratio IC50 (Human betaherpesvirus 5 [2]): 31

CC(C)(C)c1cc2c(OCCCn3cc(CN(O)C(=O)CCCCCn4cc(CO[C@H]5O[C@H](CO)[C@@H](O)[C@H](O)[C@@H]5O)nn4)nn3)c(c1)Cc1cc(C(C)(C)C)cc(c1OCCCn1cc(CN(O)C(=O)CCCCCn3cc(CO[C@H]4O[C@H](CO)[C@@H](O)[C@H](O)[C@@H]4O)nn3)nn1)Cc1cc(C(C)(C)C)cc(c1OCCCn1cc(CN(O)C(=O)CCCCCn3cc(CO[C@H]4O[C@H](CO)[C@@H](O)[C@H](O)[C@@H]4O)nn3)nn1)Cc1cc(C(C)(C)C)cc(c1OCCCn1cc(CN(O)C(=O)CCCCCn3cc(CO[C@H]4O[C@H](CO)[C@@H](O)[C@H](O)[C@@H]4O)nn3)nn1)C2
IC50 (Human betaherpesvirus 5 [1]): 0.45 mg/L
Ratio IC50 (Human betaherpesvirus 5 [2]): 34

COC(=O)CNC(=O)CN(Cc1cn(CCCOc2c3cc(C(C)(C)C)cc2Sc2cc(C(C)(C)C)cc(c2OCCCn2cc(CN(CC(=O)NCC(=O)OC)C(=O)CCCCCn4cc(CO[C@@H]5O[C@@H](C)[C@@H](O)[C@@H](O)[C@@H]5O)nn4)nn2)Sc2cc(C(C)(C)C)cc(c2OCCCn2cc(CN(CC(=O)NCC(=O)OC)C(=O)CCCCCn4cc(CO[C@@H]5O[C@@H](C)[C@@H](O)[C@@H](O)[C@@H]5O)nn4)nn2)Sc2cc(C(C)(C)C)cc(c2OCCCn2cc(CN(CC(=O)NCC(=O)OC)C(=O)CCCCCn4cc(CO[C@@H]5O[C@@H](C)[C@@H](O)[C@@H](O)[C@@H]5O)nn4)nn2)S3)nn1)C(=O)CCCCCn1cc(CO[C@@H]2O[C@@H](C)[C@@H](O)[C@@H](O)[C@@H]2O)nn1
IC50 (Human betaherpesvirus 5 [1]): 3.15 mg/L
Ratio IC50 (Human betaherpesvirus 5 [2]): 4.91

COC(=O)CNC(=O)CN(Cc1cn(CCCOc2c3cc(C(C)(C)C)cc2Cc2cc(C(C)(C)C)cc(c2OCCCn2cc(CN(CC(=O)NCC(=O)OC)C(=O)CCCCCn4cc(CO[C@@H]5O[C@@H](C)[C@@H](O)[C@@H](O)[C@@H]5O)nn4)nn2)Cc2cc(C(C)(C)C)cc(c2OCCCn2cc(CN(CC(=O)NCC(=O)OC)C(=O)CCCCCn4cc(CO[C@@H]5O[C@@H](C)[C@@H](O)[C@@H](O)[C@@H]5O)nn4)nn2)Cc2cc(C(C)(C)C)cc(c2OCCCn2cc(CN(CC(=O)NCC(=O)OC)C(=O)CCCCCn4cc(CO[C@@H]5O[C@@H](C)[C@@H](O)[C@@H](O)[C@@H]5O)nn4)nn2)C3)nn1)C(=O)CCCCCn1cc(CO[C@@H]2O[C@@H](C)[C@@H](O)[C@@H](O)[C@@H]2O)nn1
IC50 (Human betaherpesvirus 5 [1]): 2.4 mg/L
Ratio IC50 (Human betaherpesvirus 5 [2]): 6.45

OC[C@H]1O[C@@H](O[C@H]2[C@H](O)[C@@H](O)[C@H](O[C@H]3[C@H](O)[C@H](O)[C@H](O[C@@H]4[C@H](O)[C@H](O)[C@H](O)O[C@@H]4CO)O[C@@H]3CO)O[C@@H]2CO)[C@@H](O)[C@@H](O)[C@@H]1O
IC50 (Human betaherpesvirus 5 [1]): 0.0155 µM
